# Test results as given in patent publication US11584714B2 (priority 2018, dated 2023).
# Where a name gives a salt, the structure may show the parent alone. Read-outs that look alike come from different tables or passages of the source.
# Key:
# Format in all cases: biochemical
# Lectin Pathway = test: Lectin pathway activation assay in human serum (mannan-coated ELISA, C3c detection); settings: 1% human serum
# human α-thrombin = human α-thrombin (Homo sapiens (Human), UniProt P00734); test: Enzymatic assay for thrombin (Boc-VPR-AMC substrate)
# mMASP-2 = mMASP-2 (Mus musculus (Mouse), UniProt Q91WP0); test: Enzymatic inhibition of mMASP-2
# MASP-2 (CCP1-CCP2-SP) = MASP-2 (CCP1-CCP2-SP) (Homo sapiens (Human), UniProt O00187); test: biochemical; settings: for MASP-2 vs. thrombin selectivity: selectivity for MASP-2 inhibition versus thrombin
# MASP-2 (CCP1-CCP2-SP), sequence (O00187 445-686): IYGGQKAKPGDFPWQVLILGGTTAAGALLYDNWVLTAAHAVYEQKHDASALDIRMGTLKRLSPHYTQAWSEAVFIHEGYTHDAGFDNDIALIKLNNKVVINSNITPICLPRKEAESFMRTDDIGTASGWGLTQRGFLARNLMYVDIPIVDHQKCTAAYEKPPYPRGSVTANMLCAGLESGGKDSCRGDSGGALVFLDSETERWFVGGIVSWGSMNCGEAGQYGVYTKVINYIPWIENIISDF
# mMASP-2, sequence (Q91WP0 20-685): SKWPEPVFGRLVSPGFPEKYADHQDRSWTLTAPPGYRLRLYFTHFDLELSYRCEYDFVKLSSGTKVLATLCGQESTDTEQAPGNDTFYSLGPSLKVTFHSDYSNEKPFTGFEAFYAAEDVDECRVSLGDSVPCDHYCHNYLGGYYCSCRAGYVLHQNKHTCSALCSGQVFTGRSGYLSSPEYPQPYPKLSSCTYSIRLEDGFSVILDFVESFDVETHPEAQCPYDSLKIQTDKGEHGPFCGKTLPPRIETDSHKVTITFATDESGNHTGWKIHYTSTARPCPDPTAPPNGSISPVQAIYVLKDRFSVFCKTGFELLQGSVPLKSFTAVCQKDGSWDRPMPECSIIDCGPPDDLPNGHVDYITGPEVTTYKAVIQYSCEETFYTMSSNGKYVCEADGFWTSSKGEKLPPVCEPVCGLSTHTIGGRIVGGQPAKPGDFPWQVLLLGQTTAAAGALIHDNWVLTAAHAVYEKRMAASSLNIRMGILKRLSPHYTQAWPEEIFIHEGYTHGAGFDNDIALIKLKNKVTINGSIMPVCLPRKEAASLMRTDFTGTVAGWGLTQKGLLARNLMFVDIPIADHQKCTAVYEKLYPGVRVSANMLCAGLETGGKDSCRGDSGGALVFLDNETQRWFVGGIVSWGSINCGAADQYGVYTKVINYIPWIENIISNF
SMILES,IC50 (Lectin Pathway) [nM],Ki (human α-thrombin; read-out: Thrombin Ki) [µM],Ki (mMASP-2; read-out: mMASP-2 Ki) [nM],Ki (MASP-2 (CCP1-CCP2-SP); read-out: MASP-2 Ki) [nM],MASP-2 vs. thrombin selectivity (MASP-2 (CCP1-CCP2-SP)),Ki (human α-thrombin; Thrombin Ki (μM)) [µM],Ki (mMASP-2) [nM],Ki (MASP-2 (CCP1-CCP2-SP)) [nM]
"C[C@H](NC(=O)[C@@H](CCc1ccccc1)NCCc1ccc(Cl)cc1)C(=O)NCc1ccc(C(=N)N)cc1 [compound 1339, (R)—N—((S)-1-((4-Carbamimidoylbenzyl)amino)-1-oxopropan-2-yl)-2-((4-chlorophenethyl)amino)-4-phenylbutanamide Di-trifluoroacetate salt]",< 50,< 0.5,< 500,< 500,** (≥5.0 to <25-fold),–,–,–
"CC(=O)Nc1ccc(CCN[C@H](CCc2ccccc2)C(=O)N[C@@H](C)C(=O)NCc2ccc(C(=N)N)cc2)cc1 [compound 1345, (R)-2-((4-acetamidophenethyl)amino)-N-((S)-1-((4-carbamimidoylbenzyl)amino)-1-oxopropan-2-yl)-4-phenylbutanamide dihydrochloride]",< 50,< 0.5,< 500,< 500,**** (≥100-fold),–,–,–
"Cc1nc(N)ccc1CNC(=O)[C@H](C)NC(=O)[C@H]1CN(Cc2ccccc2)CCN1 [compound 1347, (R)—N—((S)-1-(((6-Amino-2-methylpyridin-3-yl)methyl)amino)-1-oxopropan-2-yl)-4-benzylpiperazine-2-carboxamide Dihydrochloride]",< 50,–,< 500,< 500,*** (≥25 to <100-fold),0.5 to 2.5,–,–
"Cc1ccccc1CN1CCN[C@@H](C(=O)N[C@@H](C)C(=O)NCc2ccc(N)nc2C)C1 [compound 1348, (R)—N—((S)-1-(((6-Amino-2-methylpyridin-3-yl)methyl)amino)-1-oxopropan-2-yl)-4-(2-methylbenzyl)piperazine-2-carboxamide Dihydrochloride]",< 50,< 0.5,< 500,< 500,*** (≥25 to <100-fold),–,–,–
"Cc1nc(N)ccc1CNC(=O)[C@H](C)NC(=O)[C@H]1C[C@H](Cc2ccc(Br)cc2)CN1 [compound 1350, (2R,4S)—N—((S)-1-(((6-Amino-2-methylpyridin-3-yl)methyl)amino)-1-oxopropan-2-yl)-4-(4-bromobenzyl)pyrrolidine-2-carboxamide Dihydrochloride]",500 to 5000,–,< 500,< 500,**** (≥100-fold),2.5 to 10,–,–
"C[C@H](NC(=O)[C@@H](CCc1ccccc1)NCCc1cccc(OC(F)(F)F)c1)C(=O)NCc1ccc(C(=N)N)cc1 [compound 1352, (R)—N—((S)-1-((4-Carbamimidoylbenzyl)amino)-1-oxopropan-2-yl)-4-phenyl-2-((3-(trifluoromethoxy)phenethyl)amino)butanamide Di-trifluoroacetate salt]",50 to 500,–,< 500,< 500,*** (≥25 to <100-fold),0.5 to 2.5,–,–
"Cc1nc(N)ccc1CNC(=O)[C@H](C)NC(=O)[C@H]1C[C@@H](Cc2ccccc2)CCN1 [compound 1353, (2R,4S)—N—((S)-1-(((6-Amino-2-methylpyridin-3-yl)methyl)amino)-1-oxopropan-2-yl)-4-benzylpiperidine-2-carboxamide Dihydrochloride]",< 50,< 0.5,< 500,< 500,*** (≥25 to <100-fold),–,–,–
"Cc1nc(N)ccc1CNC(=O)[C@H](C)NC(=O)[C@H]1C[C@H](Cc2ccc(-c3nccs3)cc2)CN1 [compound 1361, (2R,4S)—N—((S)-1-(((6-Amino-2-methylpyridin-3-yl)methyl)amino)-1-oxopropan-2-yl)-4-(4-(thiazol-2-yl)benzyl)pyrrolidine-2-carboxamide Di-trifluoroacetate salt]",< 50,> 25,< 500,< 500,**** (≥100-fold),–,–,–
"Cc1cc(Cl)cc(CNC(=O)[C@H](C)NC(=O)[C@H]2C[C@@H](Cc3ccccc3)CCN2)c1O [compound 1363, (2R,4S)-4-Benzyl-N-((S)-1-((5-chloro-2-hydroxy-3-methylbenzyl)amino)-1-oxopropan-2-yl)piperidine-2-carboxamide Hydrochloride]",50 to 500,–,< 500,< 500,**** (≥100-fold),2.5 to 10,–,–
"Cc1cc(Cl)cc(CNC(=O)[C@H](C)NC(=O)[C@H]2C[C@H](Cc3ccc4ccccc4c3)CN2)c1O [compound 1370, (2R,4S)—N—((S)-1-((5-Chloro-2-hydroxy-3-methylbenzyl)amino)-1-oxopropan-2-yl)-4-(naphthalen-2-ylmethyl)pyrrolidine-2-carboxamide]",50 to 500,> 25,–,< 500,–,–,500 to 2500,–
"C[C@H](NC(=O)[C@H]1C[C@H](Cc2ccccc2)CN1)C(=O)NCc1cc(Cl)ccc1-n1cnnn1 [compound 1371, (2R,4S)-4-Benzyl-N-((S)-1-((5-chloro-2-(1H-tetrazol-1-yl)benzyl)amino)-1-oxopropan-2-yl)pyrrolidine-2-carboxamide Hydrochloride]",50 to 500,< 0.5,500 to 2500,< 500,−− (<1.0-fold),–,–,–
"Cc1nc(N)ccc1CNC(=O)[C@H](C)NC(=O)[C@H]1C[C@H](Cc2ccccc2Br)CN1 [compound 1372, (2R,4S)—N—((S)-1-(((6-Amino-2-methylpyridin-3-yl)methyl)amino)-1-oxopropan-2-yl)-4-(2-bromobenzyl)pyrrolidine-2-carboxamide Di-trifluoroacetate salt]",50 to 500,< 0.5,< 500,< 500,** (≥5.0 to <25-fold),–,–,–
"Cc1nc(N)ccc1CNC(=O)[C@H](C)NC(=O)[C@@H](CCc1ccccc1)NCc1ccc(Cl)cc1 [compound 1375, (R)—N—((S)-1-(((6-Amino-2-methylpyridin-3-yl)methyl)amino)-1-oxopropan-2-yl)-2-((4-chlorobenzyl)amino)-4-phenylbutanamide]",500 to 5000,–,10000 to 25000,–,** (≥5.0 to <25-fold),10 to 25,–,500 to 2500
"C[C@H](NC(=O)[C@H]1C[C@H](Cc2ccc(C3CCC3)cc2)CN1)C(=O)NCc1cnc2[nH]cc(Cl)c2c1 [compound 1378, (2R,4S)—N—((S)-1-(((3-Chloro-1H-pyrrolo[2,3-b]pyridin-5-yl)methyl)amino)-1-oxopropan-2-yl)-4-(4-cyclobutylbenzyl)pyrrolidine-2-carboxamide Di-trifluoroacetate salt]",500 to 5000,–,< 500,< 500,* (≥1.0 to <5.0-fold),0.5 to 2.5,–,–
"Cc1nc(N)ccc1CNC(=O)[C@H](C)NC(=O)[C@H]1C[C@H](Cc2ccc(C(C)(C)C)cc2)CN1 [compound 1380, (2R,4S)—N—((S)-1-(((6-Amino-2-methylpyridin-3-yl)methyl)amino)-1-oxopropan-2-yl)-4-(4-(tert-butyl)benzyl)pyrrolidine-2-carboxamide Dihydrochloride]",> 50000,> 25,< 500,–,*** (≥25 to <100-fold),–,–,500 to 2500
"Cc1nc(N)ccc1CNC(=O)[C@H](CCC(N)=O)NC(=O)[C@H]1C[C@H](Cc2ccccc2)CN1 [compound 1382, (S)—NI-((6-Amino-2-methylpyridin-3-yl)methyl)-2-((2R,4S)-4-benzylpyrrolidine-2-carboxamido)pentanediamide Di-trifluoroacetate salt]",5000 to 50000,> 25,–,< 500,*** (≥25 to <100-fold),–,2500 to 10000,–
"Cc1cc(C)c(O)c(CNC(=O)[C@H](C)NC(=O)[C@H]2C[C@H](c3ccccc3)CN2)c1 [compound 1383, (2R,4R)—N—((S)-1-((2-Hydroxy-3,5-dimethylbenzyl)amino)-1-oxopropan-2-yl)-4-phenylpyrrolidine-2-carboxamide Hydrochloride]",5000 to 50000,> 25,2500 to 10000,–,–,–,–,500 to 2500
"Cc1nc(N)ccc1CNC(=O)[C@H](C)NC(=O)[C@H]1Cc2c([nH]c3ccccc23)CN1 [compound 1389, (R)—N—((S)-1-(((6-Amino-2-methylpyridin-3-yl)methyl)amino)-1-oxopropan-2-yl)-2,3,4,9-tetrahydro-1H-pyrido[3,4-b]indole-3-carboxamide Hydrochloride]",500 to 5000,> 25,2500 to 10000,< 500,**** (≥100-fold),–,–,–
"C[C@H](NC(=O)[C@H]1C[C@H](Cc2ccc3ccccc3c2)CN1)C(=O)NCc1cnc2[nH]cc(Cl)c2c1 [compound 1392, (2R,4S)—N—((S)-1-(((3-Chloro-1H-pyrrolo[2,3-b]pyridin-5-yl)methyl)amino)-1-oxopropan-2-yl)-4-(naphthalen-2-ylmethyl)pyrrolidine-2-carboxamide Di-Trifluoroacetate salt]",500 to 5000,–,< 500,< 500,*** (≥25 to <100-fold),0.5 to 2.5,–,–
"Cc1nc(N)ccc1CNC(=O)[C@H](C)NC(=O)[C@H]1C[C@H](Cc2ccc(-c3ccc(F)cc3C(N)=O)cc2)CN1 [compound 1397, (2R,4S)—N—((S)-1-(((6-amino-2-methylpyridin-3-yl)methyl)amino)-1-oxopropan-2-yl)-4-((2′-carbamoyl-4′-fluoro-[1,1′-biphenyl]-4-yl)methyl)pyrrolidine-2-carboxamide Di-trifluoroacetate salt]",50 to 500,> 25,< 500,< 500,**** (≥100-fold),–,–,–
